The values below come from patent publication US10329260B2, “Human plasma kallikrein inhibitors” (BioCryst Pharmaceuticals, Inc., priority 2014, dated 2019).

pKi: −log10 of the molar value. Some results are limits rather than exact numbers.

The target in this experiment is human plasma kallikrein (Homo sapiens (Human), UniProt P03952). Description: Plasma Kallikrein Activity Assay. To be noted: 2 nM kallikrein, 80 μM chromogenic substrate S2302, 30° C., pH 7.8; Ki by Cheng-Prusoff equation. Format: biochemical.
Chain of human plasma kallikrein (P03952 whole entry partner, looked up): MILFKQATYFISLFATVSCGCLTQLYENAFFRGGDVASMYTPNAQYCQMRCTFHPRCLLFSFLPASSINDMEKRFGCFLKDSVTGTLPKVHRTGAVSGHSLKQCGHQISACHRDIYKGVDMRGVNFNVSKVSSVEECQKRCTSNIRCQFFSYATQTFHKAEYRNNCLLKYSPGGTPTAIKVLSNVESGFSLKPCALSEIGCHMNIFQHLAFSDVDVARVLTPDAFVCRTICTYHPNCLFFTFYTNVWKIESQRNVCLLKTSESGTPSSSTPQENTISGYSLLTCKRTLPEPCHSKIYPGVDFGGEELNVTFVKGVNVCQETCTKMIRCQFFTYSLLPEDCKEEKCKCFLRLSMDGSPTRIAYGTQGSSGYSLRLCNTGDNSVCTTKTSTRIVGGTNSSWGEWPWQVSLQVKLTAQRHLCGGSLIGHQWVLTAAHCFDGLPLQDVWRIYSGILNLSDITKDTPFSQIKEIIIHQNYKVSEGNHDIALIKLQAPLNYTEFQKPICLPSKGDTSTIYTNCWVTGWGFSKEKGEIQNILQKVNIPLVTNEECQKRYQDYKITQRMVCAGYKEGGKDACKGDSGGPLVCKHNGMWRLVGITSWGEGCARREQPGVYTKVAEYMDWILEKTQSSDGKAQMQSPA
Chain of human plasma kallikrein (P03952 whole entry, looked up): as the sequence (P03952 whole entry partner, looked up) above
Experimental: The effect of compounds of the invention on human plasma kallikrein activity was determined using the chromogenic substrates (DiaPharma Group, Inc., West Chester, Ohio, USA). In these experiments, 2 nM kallikrein (Enzyme Research Laboratories, South Bend, Ind., USA) was incubated with 80 μM S2302 (H-D-Pro-Phe-Arg-p-nitroaniline) in the absence or presence of increasing concentrations of compounds of the invention in a final volume of 200 μL Tris-HCl buffer (200 mM NaCl; 2.5 mM CaCl2; 50 mM Tris-HCl, pH 7.8).
Data were analyzed using SigmaPlot software (Systat Software, Inc., San Jose, Calif., USA) (Four Parameter Logistic Curve).
Take `NCc1cccc(-n2nc(C(F)(F)F)cc2C(=O)Nc2ccc(F)c(C(OCC3CC3)c3ccccc3)c2)c1` (centres unmarked) [Compound 76h, 1-(3-(aminomethyl)phenyl)-N-(3-((cyclopropylmethoxy)(phenyl)methyl)-4-fluorophenyl)-3-(trifluoromethyl)-1H-pyrazole-5-carboxamide]: the negative-log Ki (pKi) is less than 7.00. The value for `CC(C)[C@H](N)C(=O)OC(c1ccccc1)c1cccc(NC(=O)c2cc(C(F)(F)F)nn2-c2cccc(CN)c2)c1` (stereo partly drawn) [Compound 81c, (2S)-(3-(1-(3-(aminomethyl)phenyl)-3-(trifluoromethyl)-1H-pyrazole-5-carboxamido)phenyl)(phenyl)methyl 2-amino-3-methylbutanoate] was less than 7.00; that for `NCc1cccc(-n2nc(C(F)(F)F)cc2C(=O)Nc2c(F)cccc2C(O)c2ccccc2)c1` (centres unmarked) [Compound 90f, 1-(3-(aminomethyl)phenyl)-N-(2-fluoro-6-(hydroxy(phenyl)methyl)phenyl)-3-(trifluoromethyl)-1H-pyrazole-5-carboxamide] was less than 7.00; that for `NCc1cccc(-n2nc(C(F)(F)F)cc2C(=O)Nc2cccc(C(CCC3CC3)N3CCOCC3)c2)c1` (centres unmarked) [Compound 93b, 1-(3-(aminomethyl)phenyl)-N-(3-(3-cyclopropyl-1-morpholinopropyl)phenyl)-3-(trifluoromethyl)-1H-pyrazole-5-carboxamide] was less than 7.00. The value for `NCc1cccc(-n2nc(C(F)(F)F)cc2C(=O)Nc2cc(F)cc(C(O)c3ccccc3)c2)c1` (centres unmarked) [Compound 97f, 1-(3-(aminomethyl)phenyl)-N-(3-fluoro-5-(hydroxy(phenyl)methyl)phenyl)-3-(trifluoromethyl)-1H-pyrazole-5-carboxamide] was less than 7.00; that for `NCc1cccc(-n2nc(C(F)(F)F)cc2C(=O)Nc2cccc(Cc3ccc(O)cc3)c2)c1` [Compound 136a, 1-(3-(Aminomethyl)phenyl)-N-(3-(4-hydroxybenzyl)phenyl)-3-(trifluoromethyl)-1H-pyrazole-5-carboxamide] was less than 7.00. The figure for `NCc1cccc(-n2nc(C(F)(F)F)cc2C(=O)Nc2cccc(Cc3cccc(O)c3)c2)c1` [Compound 137b, 1-(3-(aminomethyl)phenyl)-N-(3-(3-hydroxybenzyl)phenyl)-3-(trifluoromethyl)-1H-pyrazole-5-carboxamide] is less than 7.00; for `NCc1cccc(-n2nc(C(F)(F)F)cc2C(=O)Nc2cccc(C(NCCO)c3ccccc3)c2)c1` (centres unmarked) [Compound 145c, 1-(3-(Aminomethyl)phenyl)-N-(3-((2-hydroxyethylamino)(phenyl)methyl)phenyl)-3-(trifluoromethyl)-1H-pyrazole-5-carboxamide] it is less than 7.00. `O=C(Nc1cc(C(O)(CCC2CC2)c2ccccn2)ccc1F)c1cc(C(F)(F)F)nn1-c1ccc(Cl)cc1` (centres unmarked) [Compound 157a, 1-(4-chlorophenyl)-N-(5-(3-cyclopropyl-1-hydroxy-1-(pyridin-2-yl)propyl)-2-fluorophenyl)-3-(trifluoromethyl)-1H-pyrazole-5-carboxamide] showed a negative logarithm of the Ki (pKi) of less than 7.00. The value for `O=C(Nc1cc(C(O)(CCC2CC2)c2ccccn2)ccc1F)c1cc(C(F)(F)F)nn1-c1ccc2cc(Cl)ccc2c1` (centres unmarked) [Compound 158a, 1-(6-chloronaphthalen-2-yl)-N-(5-(3-cyclopropyl-1-hydroxy-1-(pyridin-2-yl)propyl)-2-fluorophenyl)-3-(trifluoromethyl)-1H-pyrazole-5-carboxamide] was less than 7.00; that for `O=C(Nc1cc(C(O)(CCC2CC2)c2ccccn2)ccc1F)c1cc(C(F)(F)F)nn1-c1ccc(Cl)cn1` (centres unmarked) [Compound 159a, 1-(5-chloropyridin-2-yl)-N-(5-(3-cyclopropyl-1-hydroxy-1-(pyridin-2-yl)propyl)-2-fluorophenyl)-3-(trifluoromethyl)-1H-pyrazole-5-carboxamide] was less than 7.00; that for `COc1ccc(-n2nc(C(F)(F)F)cc2C(=O)Nc2cc(C(O)(CCC3CC3)c3ccccn3)ccc2F)cc1` (centres unmarked) [Compound 160a, N-(5-(3-cyclopropyl-1-hydroxy-1-(pyridin-2-yl)propyl)-2-fluorophenyl)-1-(4-methoxyphenyl)-3-(trifluoromethyl)-1H-pyrazole-5-carboxamide] was less than 7.00. The value for `NCc1cccc(-n2nc(C(F)(F)F)cc2C(=O)Nc2cc3c(cc2F)CNCC3)c1` [Compound 161e, 1-(3-(aminomethyl)phenyl)-N-(7-fluoro-1,2,3,4-tetrahydroisoquinolin-6-yl)-3-(trifluoromethyl)-1H-pyrazole-5-carboxamide] was less than 7.00; that for `NCc1cccc(-n2nc(C(F)(F)F)cc2C(=O)Nc2ccc3c(c2F)CCNC3)c1` [Compound 162c, 1-(3-(aminomethyl)phenyl)-N-(5-fluoro-1,2,3,4-tetrahydroisoquinolin-6-yl)-3-(trifluoromethyl)-1H-pyrazole-5-carboxamide] was less than 7.00. The value for `NCc1cccc(-n2nc(C(F)(F)F)cc2C(=O)Nc2cc3c(cc2F)CCNC3)c1` [Compound 163g, 1-(3-(aminomethyl)phenyl)-N-(6-fluoro-1,2,3,4-tetrahydroisoquinolin-7-yl)-3-(trifluoromethyl)-1H-pyrazole-5-carboxamide] was less than 7.00; that for `NCc1cccc(-n2nc(C(F)(F)F)cc2C(=O)Nc2cccc(C3OC(=O)Nc4ccccc43)c2)c1` (centres unmarked) [Compound 167f, 1-(3-(aminomethyl)phenyl)-N-(3-(2-oxo-2,4-dihydro-1H-benzo[d] [1,3]oxazin-4-yl)phenyl)-3-(trifluoromethyl)-1H-pyrazole-5-carboxamide] was less than 7.00; that for `NCc1cccc(-n2nc(C(F)(F)F)cc2C(=O)Nc2cccc(C(c3ccccc3)N3CCCC3CO)c2)c1` (centres unmarked) [Compound 169b, 1-(3-(Aminomethyl)phenyl)-N-(3-((2-(hydroxymethyl)pyrrolidin-1-yl)(phenyl)methyl)phenyl)-3-(trifluoromethyl)-1H-pyrazole-5-carboxamide] was less than 7.00. `NCc1cccc(-n2nc(C(F)(F)F)cc2C(=O)Nc2cccc(C(c3ccccc3)N3CCC(O)C3)c2)c1` (centres unmarked) [Compound 170b, 1-(3-(Aminomethyl)phenyl)-N-(3-((3-hydroxypyrrolidin-1-yl)(phenyl)methyl)phenyl)-3-(trifluoromethyl)-1H-pyrazole-5-carboxamide]: the pKi is less than 7.00.

Consider `NCc1cccc(-n2nc(C(F)(F)F)cc2C(=O)Nc2cccc(C(NC3CCCCCC3)c3ccccc3)c2)c1` (centres unmarked) [Compound 171b, 1-(3-(Aminomethyl)phenyl)-N-(3-((cycloheptylamino)(phenyl)methyl)phenyl)-3-(trifluoromethyl)-1H-pyrazole-5-carboxamide], for which the negative logarithm of the Ki (pKi) was less than 7.00. Compound `CCCCCNC(c1ccccc1)c1cccc(NC(=O)c2cc(C(F)(F)F)nn2-c2cccc(CN)c2)c1` (centres unmarked) [Compound 172b, 1-(3-(Aminomethyl)phenyl)-N-(3-((pentylamino)(phenyl)methyl)phenyl)-3-(trifluoromethyl)-1H-pyrazole-5-carboxamide] gave a pKi of less than 7.00.

`CC(CO)NC(c1ccccc1)c1cccc(NC(=O)c2cc(C(F)(F)F)nn2-c2cccc(CN)c2)c1` (centres unmarked) [Compound 173b, 1-(3-(aminomethyl)phenyl)-N-(3-(((1-hydroxypropan-2-yl)amino)(phenyl)methyl)phenyl)-3-(trifluoromethyl)-1H-pyrazole-5-carboxamide] gave a pKi of less than 7.00. `CC(C)(CO)NC(c1ccccc1)c1cccc(NC(=O)c2cc(C(F)(F)F)nn2-c2cccc(CN)c2)c1` (centres unmarked) [Compound 174b, 1-(3-(aminomethyl)phenyl)-N-(3-(((1-hydroxy-2-methylpropan-2-yl)amino)(phenyl)methyl)phenyl)-3-(trifluoromethyl)-1H-pyrazole-5-carboxamide]: the negative-log Ki (pKi) is less than 7.00.

In turn, `NCc1cccc(-n2nc(C(F)(F)F)cc2C(=O)Nc2cccc(C(NCC3CCCO3)c3ccccc3)c2)c1` (centres unmarked) [Compound 175b, 1-(3-(aminomethyl)phenyl)-N-(3-(phenyl(((tetrahydrofuran-2-yl)methyl)amino)methyl)phenyl)-3-(trifluoromethyl)-1H-pyrazole-5-carboxamide] had a negative-log Ki (pKi) of less than 7.00.

`CC(C)CCNC(c1ccccc1)c1cccc(NC(=O)c2cc(C(F)(F)F)nn2-c2cccc(CN)c2)c1` (centres unmarked) [Compound 176b, 1-(3-(aminomethyl)phenyl)-N-(3-((isopentylamino)(phenyl)methyl)phenyl)-3-(trifluoromethyl)-1H-pyrazole-5-carboxamide]: the negative-log Ki (pKi) was less than 7.00.

On to `CCC(C)CNC(c1ccccc1)c1cccc(NC(=O)c2cc(C(F)(F)F)nn2-c2cccc(CN)c2)c1` (centres unmarked) [Compound 177b, 1-(3-(Aminomethyl)phenyl)-N-(3-(((2-methylbutyl)amino)(phenyl)methyl)phenyl)-3-(trifluoromethyl)-1H-pyrazole-5-carboxamide], for which the negative-log Ki (pKi) was less than 7.00.

Compound `NCc1cccc(-n2nc(C(F)(F)F)cc2C(=O)Nc2cccc(C(c3ccccc3)N(CCO)CCO)c2)c1` (centres unmarked) [Compound 178b, 1-(3-(aminomethyl)phenyl)-N-(3-((bis(2-hydroxyethyl)amino)(phenyl)methyl)phenyl)-3-(trifluoromethyl)-1H-pyrazole-5-carboxamide] showed a negative-log Ki (pKi) of less than 7.00. In turn, `NCc1cccc(-n2nc(C(F)(F)F)cc2C(=O)Nc2cccc(C(NCc3cccnc3)c3ccccc3)c2)c1` (centres unmarked) [Compound 179b, 1-(3-(Aminomethyl)phenyl)-N-(3-(phenyl((pyridin-3-ylmethyl)amino)methyl)phenyl)-3-(trifluoromethyl)-1H-pyrazole-5-carboxamide] showed a pKi of less than 7.00.

Take `CCCCNC(c1ccccc1)c1cccc(NC(=O)c2cc(C(F)(F)F)nn2-c2cccc(CN)c2)c1` (centres unmarked) [Compound 180b, 1-(3-(Aminomethyl)phenyl)-N-(3-((butylamino)(phenyl)methyl)phenyl)-3-(trifluoromethyl)-1H-pyrazole-5-carboxamide]: the negative logarithm of the Ki (pKi) is less than 7.00. The figure for `CC(O)CNC(c1ccccc1)c1cccc(NC(=O)c2cc(C(F)(F)F)nn2-c2cccc(CN)c2)c1` (centres unmarked) [Compound 182b, 1-(3-(aminomethyl)phenyl)-N-(3-(((2-hydroxypropyl)amino)(phenyl)methyl)phenyl)-3-(trifluoromethyl)-1H-pyrazole-5-carboxamide] is less than 7.00.

As a reminder, the pKi is −log10 of the Ki, conventionally taken in molar units.
